Paper PMC12689286, “Enhanced therapeutics of cabazitaxel via polycarboxylate conjugation: improved solubility, safety, and antitumor efficacy” (Frontiers in Immunology, 2025)

Legend:
DU145 = assay: MTS cytotoxicity, DU145; format: cell-based; settings: Homo sapiens, DU-145
Description: Human cancer cell lines were cultured in basic medium (10% fetal bovine serum (FBS)+1% double antibody solution) (Biological Industries) at 37°C in a 5% CO2 incubator. Effects of CTXs on cell proliferation and viability were measured by an MTS (Promega Corporation) assay. Absorbance values at 490 nm were measured using a microplate reader (Thermo Scientific, Varioskan Flash) ([22]).

3T3 = assay: MTS cytotoxicity, 3T3 (non-tumor); format: cell-based; settings: Mus musculus, NIH3T3, 3T3 non-tumor cell line
Hemolysis test = format: cell-based, SD rats; settings: SD, rat, rat red blood cells, 2% (v/v) suspension, 37 °C, 1.5 h
Description: (§1) The hemolytic potential of CTX formulations was evaluated using rat red blood cells (RBCs). Briefly, whole blood was collected from the abdominal aorta of anesthetized SD rats into ACD anticoagulant (blood:ACD = 1:4, v/v). The blood was diluted with normal saline (4:5, v/v) and centrifuged at 450 g for 10 min. The RBC pellet was washed three times with normal saline until the supernatant was clear. The washed RBCs were then resuspended in normal saline to prepare a 2% (v/v) suspension.
(§2) For the assay, 500 μL of the 2% RBC suspension was mixed with an equal volume of serially diluted drugs or controls in 1.5 mL tubes. The controls included: Negative control (0% hemolysis): normal saline. Positive control (100% hemolysis): distilled water. Solvent control: the vehicle for unmodified CTX (2.5% Tween 80 + 2.5% anhydrous ethanol + 95% normal saline). The mixtures were incubated at 37 °C for 1.5 h and then centrifuged at 450 g for 5 min. Subsequently, 150 μL of the supernatant from each tube was transferred to a 96-well plate, and the absorbance at 545 nm (OD545) was measured using a microplate reader. The percentage of hemolysis was calculated using the following formula: Hemolysis (%) = [(ODsample - ODnegative control)/(ODpositive control - ODnegative control)] × 100.

[1] = tested on: DU145 prostate cancer model; assay: DU145 prostate cancer xenograft, tumor volume; format: in vivo, BALB/c nude mice; settings: 3 μmol/kg tail vein, three times at 3-day intervals, control 500 ± 45 mm³
Description: (§3) All animal experiments were conducted in accordance with protocols approved by the Institutional Animal Care and Use Committee of Peking Union Medical College. Male BALB/c nude mice (6–8 weeks old) and female KM mice (6–8 weeks old) were purchased from Charles River Laboratories (Beijing, China) and maintained under specific pathogen-free conditions.
(§4) DU145 Prostate cancer model: DU145 cells (3×10^6 cells/mouse) were subcutaneously inoculated into the right flank of BALB/c nude mic. When tumors reached approximately 100 mm³, mice were randomly divided into four treatment groups (n=6/group): (a) Vehicle control; (b) CTX (3 μmol/kg); (c) CTX-TTHA (3 μmol/kg); (d) CTX-DTPA (3 μmol/kg). Treatments were administered via tail vein injection three times at 3-day intervals. Major organs were collected for histopathological examination after the final administration.

[2] = DU145 xenograft model, body weight; format: in vivo, BALB/c nude mice; settings: 3 μmol/kg, by day 7
Description: as §3, §4

[3] = MCF-7 xenograft model, survival; format: in vivo, BALB/c nude mice; settings: MCF-7 model, 9.6 μmol/kg, n=6
Description: as §3
MCF-7 Breast Cancer Model: Female BALB/c nude mice bearing MCF-7 xenografts (2×10^6 cells/mouse) were randomized into treatment groups as described above, with an adjusted dose of 9.6 μmol/kg for all CTX formulations.

thymus = assay: Thymic toxicity in H22 tumor-bearing mice (thymus weight, thymocyte apoptosis); format: in vivo, KM mice
Description: H22 hepatoma model: Female KM mice were subcutaneously implanted with H22 cells (2×10^6 cells/mouse) and assigned to six groups: (a) Vehicle control; (b) CTX (9.6 μmol/kg in 5% glucose with 2.5% ethanol/2.5% Tween 80); (c) CTX-TTHA (9.6 μmol/kg in saline); (d) CTX-DTPA (9.6 μmol/kg in saline); (e) CTX-TTHA (19.1 μmol/kg in saline); (f) CTX-DTPA (19.1 μmol/kg in saline).
Gently mix 1×10^6 thymocytes with FITC Anexin V (5 μl) and PI (10 μl), and incubate in the dark for 15 minutes, RT. Analyze by flow cytometry. Thymocytes were stained with anti-mouse CD3e cyanine 5.5 (eBioscience, 85-45-0031-82), anti-CD4 PE (eBioscience, 85-12-0042-82), anti-CD8a FITC (4°C 30 min) and detected by flow cytometry.

tubulin = molecular target: T1, tubulin (Sus scrofa, UniProt P02554); assay: Purified tubulin polymerization; format: biochemical; settings: purified tubulin 3 mg/ml, 37°C
T1 construct: purchased Cytoskeleton BK006P
Description: A tubulin polymerization assay kit (Cytoskeleton, BK006P) was used. Briefly, 10 μl of CTXs with a concentration of 100 μM in the general tubulin buffer and 100 μl of tubulin (3 mg/ml) in TP buffer were added on ice. The 96-well plate was immediately placed in a microplate reader at 37°C.

[4] = tested on: rat red blood cells (RBCs); assay: Hemolysis test; format: cell-based, SD rats; settings: vs unmodified CTX
Description: as §1, §2

T1 sequence (P02554 whole entry): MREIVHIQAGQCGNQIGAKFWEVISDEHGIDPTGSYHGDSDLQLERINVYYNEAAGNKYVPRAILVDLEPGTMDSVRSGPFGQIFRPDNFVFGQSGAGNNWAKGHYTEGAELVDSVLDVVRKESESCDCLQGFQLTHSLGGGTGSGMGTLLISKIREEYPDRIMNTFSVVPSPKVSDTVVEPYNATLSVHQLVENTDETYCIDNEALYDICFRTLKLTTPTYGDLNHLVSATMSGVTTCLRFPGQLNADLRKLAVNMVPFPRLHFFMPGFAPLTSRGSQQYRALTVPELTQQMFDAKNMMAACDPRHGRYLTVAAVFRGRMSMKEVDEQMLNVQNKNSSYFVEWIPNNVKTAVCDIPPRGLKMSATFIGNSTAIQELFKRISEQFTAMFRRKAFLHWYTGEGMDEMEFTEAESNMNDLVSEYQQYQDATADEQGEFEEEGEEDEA
T1 sequence (P02550 whole entry partner): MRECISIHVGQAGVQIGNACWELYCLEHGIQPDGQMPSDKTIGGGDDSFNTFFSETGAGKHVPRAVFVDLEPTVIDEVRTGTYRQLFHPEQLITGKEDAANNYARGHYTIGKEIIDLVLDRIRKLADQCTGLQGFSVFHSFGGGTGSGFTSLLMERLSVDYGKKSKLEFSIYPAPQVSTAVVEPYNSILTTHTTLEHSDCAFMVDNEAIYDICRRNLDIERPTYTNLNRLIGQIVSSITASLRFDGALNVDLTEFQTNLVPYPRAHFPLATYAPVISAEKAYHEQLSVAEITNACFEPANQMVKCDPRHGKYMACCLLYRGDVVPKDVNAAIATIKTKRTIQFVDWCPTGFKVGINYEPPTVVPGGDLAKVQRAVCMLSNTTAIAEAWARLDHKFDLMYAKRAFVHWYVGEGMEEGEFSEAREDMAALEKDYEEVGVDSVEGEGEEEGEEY

| SMILES | IC50 (DU145) | IC50 (3T3) | hemolysis at 1.5 h, 4.7 nmol/mL (Hemolysis test; 4.7 nmol/mL, read-out: hemolysis rate) | hemolysis at 1.5 h, 75 nmol/mL (Hemolysis test; 75 nmol/mL, read-out: hemolysis rate) | final tumor volume [1] | body weight loss [2] | survival [3] | thymic weight relative to normal (thymic atrophy) (thymus) | thymocyte apoptosis rate (thymus; Annexin V/PI flow cytometry) | polymerization kinetics (tubulin) | hemolysis at 1.5 h, 300 nmol/mL (Hemolysis test; 300 nmol/mL (maximum tested), read-out: hemolysis rate) | hemolysis at 1.5 h (Hemolysis test; concentrations up to 150 nmol/mL) | improvement in hemocompatibility over unmodified CTX [4] |
| --- | --- | --- | --- | --- | --- | --- | --- | --- | --- | --- | --- | --- | --- |
| CO[C@H]1C(=O)[C@]2(C)[C@@H](OC)C[C@H]3OC[C@@]3(OC(C)=O)[C@H]2[C@H](OC(=O)c2ccccc2)[C@]2(O)C[C@H](OC(=O)[C@H](O)[C@@H](NC(=O)OC(C)(C)C)c3ccccc3)C(C)=C1C2(C)C [CTX, Cabazitaxel] | 6.1 ± 2.4 nM | 8.7 ± 3.2 nM | 11 ± 3.2% | 73.4 ± 5.8% | 254 ± 35 mm³ | > 15% | 83.3% | 31 % of normal weight | 66.8% |  |  |  |  |
| COC1C(=O)C2(C)C(OC)CC3OCC3(OC(C)=O)C2C(OC(=O)c2ccccc2)C2(O)CC(OC(=O)C(OC(=O)CN(CCN(CCN(CC(=O)O)CC(=O)O)CC(=O)O)CC(=O)O)C(NC(=O)OC(C)(C)C)c3ccccc3)C(C)=C1C2(C)C (stereo not shown) [CTX-DTPA] | 5.1 ± 1.4 nM | 8.3 ± 2.7 nM |  |  | 244 ± 32 mm³ |  |  |  |  | 43.7 ± 8.0 mOD/min | 12.1 ± 9.2% | < 2% | 64 fold |
